In patent EP0283151A2, “Prostaglandins useful for lowering intraocular pressure” (ALLERGAN, INC, priority 1987, dated 1988):
Marks after values point to notes of the source that are not given here.

Assays:
[1] = IOP effects in conscious rabbits, applanation pneumatonometry; assay type: in vivo, New Zealand-Dutch Belt cross rabbits; set-up: IOP (Test): unit not given here; details: for IOP (Test): treated eye; for concentration having the same effect in lowering intraocular pressure: solution applied to the eye
Procedure: (§1) The ocular hypotensive activity of these compounds was measured by applanation pneumatonometry.
The effect of 0.1 percent PGF2α on IOP versus 0.01% solution of the 9,11,15 triacetyl ester of PGF2α was measured in New Zealand-Dutch Belt cross rabbits. Intraocular pressure was measured by applanation pneumatonometry in conscious animals. Nine animals were used for each experiment. The data from this study as summarized in Table I show about a 10-fold difference in the activity of 9,11,15-triacetyl PGF2α compound over PGF2α.

[2] = Duration of IOP-lowering action in cats after topical application; assay type: in vivo; set-up: unit not given here; details: topical 0.1%, 25μL
Procedure: as §1
The duration of action of the triester (9,11,15-triacetyl ester) in comparison with that of the native PGF2α was tested in cats.

| SMILES | concentration having the same effect in lowering intraocular pressure [1] [%] | Test IOP ([2]; 0.0 hours) | Test IOP ([2]; 0.5 hours) | Test IOP ([2]; 1.0 hours) | Test IOP ([2]; 2.0 hours) | Test IOP ([2]; 3.0 hours) | Test IOP ([2]; 4.0 hours) | Test IOP ([2]; 6.0 hours) | Test IOP ([2]; 24.0 hours) | Test IOP ([2]; -0.5 hours) | also measured |
| --- | --- | --- | --- | --- | --- | --- | --- | --- | --- | --- | --- |
| CCCCC[C@H](O)/C=C/[C@@H]1[C@@H](C/C=C\CCCC(=O)O)[C@@H](O)C[C@H]1O [PGF2α, reference compound] | 0.1 | 19.8 | 18.2 | 15.4* | 14.5* | 15.3* | 16.7* | 21.5 | 19.8 | 19.7 | IOP (Test) ([1]; rabbits, 0.1% solution, 0 hours): 21.67; IOP (Test) ([1]; rabbits, 0.1% solution, 0.5 hours): 23.00; IOP (Test) ([1]; rabbits, 0.1% solution, 1.0 hours): 24.00; IOP (Test) ([1]; rabbits, 0.1% solution, 1.5 hours): 24.35; IOP (Test) ([1]; rabbits, 0.1% solution, 2.0 hours): 22.67; IOP (Test) ([1]; rabbits, 0.1% solution, 2.5 hours): 20.92; IOP (Test) ([1]; rabbits, 0.1% solution, 3.5 hours): 19.50*; IOP (Test) ([1]; rabbits, 0.1% solution, 4.5 hours): 20.75 |
| CCCCC[C@@H](/C=C/[C@H]1C(OC(C)=O)C[C@H](OC(C)=O)[C@@H]1C/C=C\CCCC(=O)O)OC(C)=O (stereo partly drawn) [Triester, (5Z,9α,13E,15S)-9,11,15-triacetoxyprosta-5,13-dienoic acid] | 0.01 | 20.6 | 18.6 | 17.9* | 17.0* | 18.0* | 17.8* | 18.8* | 20.0* | 21.2 | IOP (Test) ([1]; rabbits, 0.01% solution, 0 hours): 24.39; IOP (Test) ([1]; rabbits, 0.01% solution, 0.5 hours): 24.67; IOP (Test) ([1]; rabbits, 0.01% solution, 1.0 hours): 23.56; IOP (Test) ([1]; rabbits, 0.01% solution, 1.5 hours): 22.72*; IOP (Test) ([1]; rabbits, 0.01% solution, 2.0 hours): 21.33*; IOP (Test) ([1]; rabbits, 0.01% solution, 2.5 hours): 20.83*; IOP (Test) ([1]; rabbits, 0.01% solution, 3.5 hours): 22.22*; IOP (Test) ([1]; rabbits, 0.01% solution, 4.5 hours): 23.28; increase in potency in terms of lowering IOP compared to PGF2α ([1]; rabbits, 0.01% triacetyl ester versus 0.1% PGF2α): ~10 fold |
